How the values were obtained:
[1] = test system: JAK2-pSTAT5 (GM-CSF induced pSTAT5); assay: GM-CSF induced pSTAT5 in human PBMC; format: cell-based; conditions: 5 ng/mL GM-CSF
Procedure: Human PBMC are isolated from buffy coat and are stored frozen for assays as needed. Cells for assay are thawed and resuspended in complete media containing serum, then cells are diluted to 1.67 E6 cells/ml so that 120 ul per well is 200,000 cells. 15 ul of compound or DMSO is added to the well at the desired concentrations and incubated at 1 hr at 37 C. 15 ul of stimulus (final concentration of 1.7 ng/mL IL-12) is added for 30 minutes prior to pSTAT4 and total STAT4 analysis using cell lysates prepared and analyzed by MSD reagents as per manufacturer protocol. The final DMSO concentration of compound in the assay is 0.1%.
Cells are prepared for analysis as in the above procedure and 15 ul of GM-CSF (final concentration 5 ng/mL) is added for 20 minutes prior to pSTAT5 and total STAT5 analysis using cell lysates prepared and analyzed by MSD reagents as per manufacturer protocol. The final DMSO concentration of compound in the assay is 0.1%.

[2] = molecular target: TYK2 (Homo sapiens (Human), UniProt P29597); assay: Tyk2 radioactive kinase assay; format: biochemical; conditions: ATP 10 μM
Procedure, shortened: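 Recombinant human TYK2 (Invitrogen) was mixed with 20 μM peptide substrate in a buffer of 20 mM Hepes pH 7.5, 10 mM MgCl2, 1 mM EGTA, 0.02% Brij35, 0.02 mg/mL BSA, 0.1 mM […], 2 mM DTT and 1% DMSO, and compounds in DMSO were added. Adding ^33P-ATP (10 μM ATP) started the reaction, which ran 120 min at room temperature. Mixtures were then spotted onto P81 ion-exchange paper, washed thoroughly in 0.75% phosphoric acid, and counted for radioactivity.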

[3] = molecular target: JAK2 (Homo sapiens (Human), UniProt O60674); assay: JAK2 radioactive kinase assay; format: biochemical; conditions: ATP 10 μM
Procedure, shortened: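 Radiometric assay in Hepes pH 7.5, MgCl2, EGTA, Brij35, BSA, DTT, 1% DMSO, with 10 μM [33P]ATP, 120 min at room temp; P81 paper capture and counting. […]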

[4] = test system: Tyk2-pSTAT4 (IL-12 induced pSTAT4); assay: IL-12 induced pSTAT4 in human PBMC; format: cell-based; conditions: 1.7 ng/mL IL-12, 30 minutes
Procedure, shortened: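 Thawed human PBMC (200,000 cells/well, serum-containing medium) preincubated with compound 1 hr at 37 C, 0.1% DMSO final. Stimulated with 1.7 ng/mL IL-12 (final) for 30 minutes; pSTAT4 and total STAT4 in lysates measured by MSD immunoassay.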

Chain of JAK2 (O60674 whole entry): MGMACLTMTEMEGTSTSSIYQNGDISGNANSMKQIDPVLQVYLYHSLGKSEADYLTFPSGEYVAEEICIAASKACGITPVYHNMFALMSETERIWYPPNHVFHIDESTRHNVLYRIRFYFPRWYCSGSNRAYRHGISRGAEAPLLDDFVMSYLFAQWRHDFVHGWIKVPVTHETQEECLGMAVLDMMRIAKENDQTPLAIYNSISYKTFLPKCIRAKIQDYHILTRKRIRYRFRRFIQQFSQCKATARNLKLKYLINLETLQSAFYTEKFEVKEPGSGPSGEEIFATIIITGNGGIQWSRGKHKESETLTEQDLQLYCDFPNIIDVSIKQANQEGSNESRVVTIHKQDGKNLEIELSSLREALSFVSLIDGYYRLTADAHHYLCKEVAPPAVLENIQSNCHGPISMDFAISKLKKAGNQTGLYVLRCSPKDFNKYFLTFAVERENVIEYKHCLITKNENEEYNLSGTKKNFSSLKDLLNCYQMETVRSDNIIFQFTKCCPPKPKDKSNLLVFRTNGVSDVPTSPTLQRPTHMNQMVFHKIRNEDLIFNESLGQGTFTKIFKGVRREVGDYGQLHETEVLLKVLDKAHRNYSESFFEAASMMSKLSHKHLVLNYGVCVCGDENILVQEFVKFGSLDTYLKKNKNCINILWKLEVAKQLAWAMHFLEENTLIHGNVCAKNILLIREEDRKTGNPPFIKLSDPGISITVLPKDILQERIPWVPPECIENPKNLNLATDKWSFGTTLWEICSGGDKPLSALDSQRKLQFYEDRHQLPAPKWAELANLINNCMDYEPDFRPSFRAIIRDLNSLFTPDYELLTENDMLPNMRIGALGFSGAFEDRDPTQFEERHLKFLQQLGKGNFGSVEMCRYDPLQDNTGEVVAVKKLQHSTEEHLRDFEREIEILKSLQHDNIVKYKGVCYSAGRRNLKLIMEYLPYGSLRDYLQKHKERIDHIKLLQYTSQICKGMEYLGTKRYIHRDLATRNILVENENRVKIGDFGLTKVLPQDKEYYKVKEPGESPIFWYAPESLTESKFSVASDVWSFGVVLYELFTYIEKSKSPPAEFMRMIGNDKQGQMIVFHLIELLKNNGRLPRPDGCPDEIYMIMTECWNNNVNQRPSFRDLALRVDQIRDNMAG
Chain of TYK2 (P29597 whole entry): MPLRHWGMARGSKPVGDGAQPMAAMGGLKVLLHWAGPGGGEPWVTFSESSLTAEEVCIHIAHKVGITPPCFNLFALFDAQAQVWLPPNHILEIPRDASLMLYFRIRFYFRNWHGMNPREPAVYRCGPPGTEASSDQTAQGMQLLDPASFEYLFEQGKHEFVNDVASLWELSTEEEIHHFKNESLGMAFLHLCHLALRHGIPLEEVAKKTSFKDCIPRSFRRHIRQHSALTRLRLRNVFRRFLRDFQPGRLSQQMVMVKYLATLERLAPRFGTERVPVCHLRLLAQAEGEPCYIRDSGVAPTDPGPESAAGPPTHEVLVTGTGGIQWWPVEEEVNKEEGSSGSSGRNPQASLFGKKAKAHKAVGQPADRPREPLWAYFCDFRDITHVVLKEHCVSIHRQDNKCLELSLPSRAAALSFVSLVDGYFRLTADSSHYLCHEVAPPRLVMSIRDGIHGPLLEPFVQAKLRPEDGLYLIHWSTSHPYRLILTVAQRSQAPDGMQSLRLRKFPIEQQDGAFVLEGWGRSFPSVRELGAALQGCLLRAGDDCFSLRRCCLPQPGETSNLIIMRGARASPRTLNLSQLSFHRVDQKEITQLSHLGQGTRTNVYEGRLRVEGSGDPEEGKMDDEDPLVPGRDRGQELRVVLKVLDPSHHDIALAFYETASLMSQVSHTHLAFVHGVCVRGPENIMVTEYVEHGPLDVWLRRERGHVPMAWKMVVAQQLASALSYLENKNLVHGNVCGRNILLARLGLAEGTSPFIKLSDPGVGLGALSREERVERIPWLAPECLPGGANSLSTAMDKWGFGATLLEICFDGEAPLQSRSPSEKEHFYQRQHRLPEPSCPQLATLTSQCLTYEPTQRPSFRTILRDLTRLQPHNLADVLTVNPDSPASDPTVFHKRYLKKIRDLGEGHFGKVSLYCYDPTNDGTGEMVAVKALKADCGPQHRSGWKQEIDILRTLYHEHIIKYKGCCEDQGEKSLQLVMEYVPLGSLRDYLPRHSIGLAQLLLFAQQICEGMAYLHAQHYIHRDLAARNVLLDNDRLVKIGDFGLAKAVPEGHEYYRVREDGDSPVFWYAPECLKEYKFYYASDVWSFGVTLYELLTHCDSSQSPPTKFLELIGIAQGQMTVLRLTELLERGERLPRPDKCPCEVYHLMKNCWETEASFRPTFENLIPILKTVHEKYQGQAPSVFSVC

| SMILES | EC50 ([1]; Homo sapiens, PBMC, 20 min) [nM] | Ki [2] [nM] | Ki [3] [nM] | EC50 ([4]; Homo sapiens, PBMC, 0.5 h) [nM] | EC50 ([1]; 20 minutes) [nM] | EC50 [4] [nM] |
| --- | --- | --- | --- | --- | --- | --- |
| C[C@@H]1CC(O)C[C@H](C)N1c1ccn(-c2cc(-c3c(F)cccc3C#N)nc3c2C(=O)NC3)n1 (stereo partly drawn) [I-107, 3-fluoro-2-(4-(3-((2S,6R)-4-hydroxy-2,6-dimethylpiperidin-1-yl)-1H-pyrazol-1-yl)-5-oxo-6,7-dihydro-5H-pyrrolo[3,4-b]pyridin-2-yl)benzonitrile] | 100 to 2000 | 10 to 100 | 100 to 1000 | 100 to 2000 | – | – |
| N#Cc1cccc(F)c1-c1cc(-n2ccc(N3CCC[C@@H](O)C3)n2)c2c(n1)CNC2=O [I-69, (R)-3-fluoro-2-(4-(3-(3-hydroxypiperidin-1-yl)-1H-pyrazol-1-yl)-5-oxo-6,7-dihydro-5H-pyrrolo[3,4-b]pyridin-2-yl)benzonitrile] | 100 to 2000 | 0.1 to 10 | 10 to 100 | 100 to 2000 | – | – |
| N#Cc1cccc(F)c1-c1cc(-n2ccc(N3CC[C@@H](O)C3)n2)c2c(n1)CNC2=O [I-78, (R)-3-fluoro-2-(4-(3-(3-hydroxypyrrolidin-1-yl)-1H-pyrazol-1-yl)-5-oxo-6,7-dihydro-5H-pyrrolo[3,4-b]pyridin-2-yl)benzonitrile] | 100 to 2000 | 0.1 to 10 | 10 to 100 | 30 to 100 | – | – |
| N#Cc1cccc(F)c1-c1cc(-n2ccc(N3CCOC[C@@H]3CO)n2)c2c(n1)CNC2=O [I-163, (S)-3-fluoro-2-(4-(3-(3-(hydroxymethyl)morpholino)-1H-pyrazol-1-yl)-5-oxo-6,7-dihydro-5H-pyrrolo[3,4-b]pyridin-2-yl)benzonitrile] | 100 to 2000 | 0.1 to 10 | 0.1 to 10 | 100 to 2000 | – | – |
| [2H]C([2H])([2H])O[C@@H]1CN(c2ccn(-c3cc(-c4c(F)cccc4C#N)nc4c3C(=O)NC4)n2)C[C@@H]1O [I-223, 3-fluoro-2-(4-(3-((3S,4R)-3-hydroxy-4-(methoxy-d3)pyrrolidin-1-yl)-1H-pyrazol-1-yl)-5-oxo-6,7-dihydro-5H-pyrrolo[3,4-b]pyridin-2-yl)benzonitrile] | 100 to 2000 | 0.1 to 10 | 10 to 100 | 100 to 2000 | – | – |
| C[C@H]1[C@H](O)CCN1c1ccn(-c2cc(-c3c(F)cccc3C#N)nc3c2C(=O)NC3)n1 [I-150, 3-fluoro-2-(4-(3-((2S,3R)-3-hydroxy-2-methylpyrrolidin-1-yl)-1H-pyrazol-1-yl)-5-oxo-6,7-dihydro-5H-pyrrolo[3,4-b]pyridin-2-yl)benzonitrile] | > 2000 | 0.009 to 0.1 | 0.1 to 10 | 30 to 100 | – | – |
| CO[C@@H]1CCN(c2ccn(-c3cc(-c4c(F)cccc4C#N)nc4c3C(=O)NC4)n2)C[C@H]1O [I-211, 3-fluoro-2-(4-(3-((3R,4R)-3-hydroxy-4-methoxypiperidin-1-yl)-1H-pyrazol-1-yl)-5-oxo-6,7-dihydro-5H-pyrrolo[3,4-b]pyridin-2-yl)benzonitrile] | – | 0.1 to 10 | 10 to 100 | – | > 2000 | 100 to 2000 |
| N#Cc1cccc(F)c1-c1cc(-n2ccc(N3CCCC3=O)n2)c2c(n1)CNC2=O [I-139, 3-fluoro-2-(5-oxo-4-(3-(2-oxopyrrolidin-1-yl)-1H-pyrazol-1-yl)-6,7-dihydro-5H-pyrrolo[3,4-b]pyridin-2-yl)benzonitrile] | 100 to 2000 | 0.1 to 10 | 10 to 100 | 100 to 2000 | – | – |
| CC1(O)CN(c2ccn(-c3cc(-c4c(F)cccc4C#N)nc4c3C(=O)NC4)n2)CCC1F (centres unmarked) [I-219, 3-fluoro-2-(4-(3-(4-fluoro-3-hydroxy-3-methylpiperidin-1-yl)-1H-pyrazol-1-yl)-5-oxo-6,7-dihydro-5H-pyrrolo[3,4-b]pyridin-2-yl)benzonitrile] | 100 to 2000 | 0.1 to 10 | 10 to 100 | 100 to 2000 | – | – |
| CC1(C)[C@@H](O)CCN1c1ccn(-c2cc(-c3c(F)cccc3C#N)nc3c2C(=O)NC3)n1 [I-205, (S)-3-fluoro-2-(4-(3-(3-hydroxy-2,2-dimethylpyrrolidin-1-yl)-1H-pyrazol-1-yl)-5-oxo-6,7-dihydro-5H-pyrrolo[3,4-b]pyridin-2-yl)benzonitrile] | 100 to 2000 | 0.1 to 10 | 10 to 100 | 30 to 100 | – | – |
| [2H]C1([2H])N(c2ccn(-c3cc(-c4c(F)cccc4C#N)nc4c3C(=O)NC4)n2)C([2H])([2H])[C@](C)(O)C([2H])([2H])C1([2H])[2H] [I-220, (R)-3-fluoro-2-(4-(3-(3-hydroxy-3-methylpiperidin-1-yl-2,2,4,4,5,5,6,6-d8)-1H-pyrazol-1-yl)-5-oxo-6,7-dihydro-5H-pyrrolo[3,4-b]pyridin-2-yl)benzonitrile] | > 2000 | 0.1 to 10 | 10 to 100 | 100 to 2000 | – | – |
| N#Cc1cccc(F)c1-c1cc(-n2ccc(N3CCC[C@](N)(C(F)(F)F)C3)n2)c2c(n1)CNC2=O [I-119, (R)-2-(4-(3-(3-amino-3-(trifluoromethyl)piperidin-1-yl)-1H-pyrazol-1-yl)-5-oxo-6,7-dihydro-5H-pyrrolo[3,4-b]pyridin-2-yl)-3-fluorobenzonitrile] | 100 to 2000 | 0.009 to 0.1 | 0.1 to 10 | 30 to 100 | – | – |
| N#Cc1cccc(F)c1-c1cc(-n2ccc(N3CCCC(N)(C(F)(F)F)C3)n2)c2c(n1)CNC2=O (centres unmarked) [I-84, 2-(4-(3-(3-amino-3-(trifluoromethyl)piperidin-1-yl)-1H-pyrazol-1-yl)-5-oxo-6,7-dihydro-5H-pyrrolo[3,4-b]pyridin-2-yl)-3-fluorobenzonitrile] | 100 to 2000 | 0.009 to 0.1 | 0.1 to 10 | 30 to 100 | – | – |
| N#Cc1cccc(F)c1-c1cc(-n2ccc(N3CCC(O)CC3)n2)c2c(n1)CNC2=O [I-56, 3-fluoro-2-(4-(3-(4-hydroxypiperidin-1-yl)-1H-pyrazol-1-yl)-5-oxo-6,7-dihydro-5H-pyrrolo[3,4-b]pyridin-2-yl)benzonitrile] | 100 to 2000 | 0.1 to 10 | 10 to 100 | 100 to 2000 | – | – |
| N#Cc1cccc(F)c1-c1cc(-n2ccc(N3CCC[C@H](CO)C3)n2)c2c(n1)CNC2=O [I-98, (S)-3-fluoro-2-(4-(3-(3-(hydroxymethyl)piperidin-1-yl)-1H-pyrazol-1-yl)-5-oxo-6,7-dihydro-5H-pyrrolo[3,4-b]pyridin-2-yl)benzonitrile] | 100 to 2000 | 0.1 to 10 | 10 to 100 | 30 to 100 | – | – |
| CN1CCN([C@H]2CCCN(c3ccn(-c4cc(-c5c(F)cccc5C#N)nc5c4C(=O)NC5)n3)C2)CC1 [I-155, (S)-3-fluoro-2-(4-(3-(3-(4-methylpiperazin-1-yl)piperidin-1-yl)-1H-pyrazol-1-yl)-5-oxo-6,7-dihydro-5H-pyrrolo[3,4-b]pyridin-2-yl)benzonitrile] | > 2000 | 0.1 to 10 | 10 to 100 | 100 to 2000 | – | – |
| CC(C)n1ccc(-c2cc(-c3c(F)cccc3C#N)nc3c2C(=O)NC3)n1 [I-57, 3-fluoro-2-(4-(1-isopropyl-1H-pyrazol-3-yl)-5-oxo-6,7-dihydro-5H-pyrrolo[3,4-b]pyridin-2-yl)benzonitrile] | 100 to 2000 | 0.1 to 10 | 100 to 1000 | 100 to 2000 | – | – |
| CC(=O)Nc1cnn(-c2cc(-c3c(F)cccc3C#N)nc3c2C(=O)NC3)c1 [I-177, N-(1-(2-(2-cyano-6-fluorophenyl)-5-oxo-6,7-dihydro-5H-pyrrolo[3,4-b]pyridin-4-yl)-1H-pyrazol-4-yl)acetamide] | 100 to 2000 | ≥ 1000 | ≥ 1000 | > 2000 | – | – |
| N#Cc1cccc(F)c1-c1cc(-n2ccc(N3CCC[C@H](O)[C@H](O)C3)n2)c2c(n1)CNC2=O [I-178, 2-(4-(3-((3R,4S)-3,4-dihydroxyazepan-1-yl)-1H-pyrazol-1-yl)-5-oxo-6,7-dihydro-5H-pyrrolo[3,4-b]pyridin-2-yl)-3-fluorobenzonitrile] | > 2000 | 0.1 to 10 | 10 to 100 | 100 to 2000 | – | – |
| N#Cc1cccc(F)c1-c1cc(-n2ccc(N3CC[C@@H](O)[C@@H](O)C3)n2)c2c(n1)CNC2=O [I-137, 2-(4-(3-((3S,4R)-3,4-dihydroxypiperidin-1-yl)-1H-pyrazol-1-yl)-5-oxo-6,7-dihydro-5H-pyrrolo[3,4-b]pyridin-2-yl)-3-fluorobenzonitrile] | > 2000 | 0.1 to 10 | 0.1 to 10 | – | – | 100 to 2000 |

Source: patent publication US10781204B2, “TYK2 inhibitors and uses thereof” (Nimbus Lakshmi, Inc., priority 2015, dated 2020)
